Biological target: T1, PLK1 (Homo sapiens, UniProt P53350)
T1 construct: full-length PLK1, N-terminal NLuc fusion (NLuc-PLK1)
Assay: live-cell NanoBRET probe titration with and without excess compound […]
Assay type: cell-based

T1 sequence (P53350 whole entry, the tested form may be a part): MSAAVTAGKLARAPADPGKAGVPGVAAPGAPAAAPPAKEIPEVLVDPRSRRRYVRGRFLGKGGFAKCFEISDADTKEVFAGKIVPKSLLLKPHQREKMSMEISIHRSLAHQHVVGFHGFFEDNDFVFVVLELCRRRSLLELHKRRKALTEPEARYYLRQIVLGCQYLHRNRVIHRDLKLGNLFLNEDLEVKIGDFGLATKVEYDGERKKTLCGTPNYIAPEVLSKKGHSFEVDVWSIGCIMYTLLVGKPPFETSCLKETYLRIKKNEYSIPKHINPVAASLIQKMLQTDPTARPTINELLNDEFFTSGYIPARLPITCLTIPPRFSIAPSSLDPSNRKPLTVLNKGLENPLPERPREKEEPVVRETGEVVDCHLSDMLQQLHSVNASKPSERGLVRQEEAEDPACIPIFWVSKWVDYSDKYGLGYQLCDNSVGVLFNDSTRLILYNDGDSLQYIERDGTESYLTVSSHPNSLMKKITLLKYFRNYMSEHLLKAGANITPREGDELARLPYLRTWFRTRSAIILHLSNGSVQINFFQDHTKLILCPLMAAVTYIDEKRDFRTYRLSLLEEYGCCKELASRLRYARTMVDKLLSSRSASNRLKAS

EC50: 300 nM
Compound: CC[C@@H]1C(=O)N(C)c2cnc(Nc3ccc(C(=O)NC4CCN(C(=O)CCOCCOCCOCCOCCNC(=O)CCc5ccc6n5[B-](F)(F)[N+]5=C(c7ccc[nH]7)C=CC5=C6)CC4)cc3OC)nc2N1C(C)C [compound 11, (R)-N-(1-(1-(5,5-difluoro-7-(1H-pyrrol-2-yl)-5H-5^λ,6^λ-dipyrrolo[1,2-c:2',1'-f][1,3,2]diazaborinin-3-yl)-3-oxo-7,10,13,16-tetraoxa-4-azanonadecan-19-oyl)piperidin-4-yl)-4-((7-ethyl-8-isopropyl-5-methyl-6-oxo-5,6,7,8-tetrahydropteridin-2-yl)amino)-3-methoxybenzamide]

Reference: doi:10.1101/2023.02.25.529946, “Development of Cell Permeable NanoBRET Probes for the Measurement of PLK1 Target Engagement in Live Cells” (bioRxiv, 2023)
